Measured values from patent publication US20070117743A1, “New antitumoral compounds” (priority 2003, published 2007).
Where a SMILES comes first, the peptide text is derived from it. Bridges are numbered along the chain shown (N, C = ends). [ ]: non-standard residue; d: D form. The star is where a group is joined. d(aIle) = CC[C@H](C)[C@@H](N)C(=O)O; d(aThr) = C[C@@H](O)[C@@H](N)C(=O)O; Hexanoyl(5-Me) = CC(C)CCCC(=O)*; Orn = NCCC[C@H](N)C(=O)O; Dhb = C/C=C(\N)C(=O)O

Tests used:
Format in all cases: cell-based, human
IGROV-1 = test: SRB colorimetric assay of cell growth and viability, IGROV-1; conditions: 48 hours exposure
HeLa = test: SRB colorimetric assay of cell growth and viability, HeLa; conditions: HELA, 48 hours exposure; for CC50: read-out: LC50 HELA
DU-145 = test: SRB colorimetric assay of cell growth and viability, DU-145; conditions: 48 hours exposure
SK-MEL-28 = test: SRB colorimetric assay of cell growth and viability, SK-MEL-28; conditions: 48 hours exposure; for CC50: read-out: LC50 MEL-28
HT-29 = test: SRB colorimetric assay of cell growth and viability, HT-29; conditions: HT-29, 48 hours exposure; for GI50: read-out: GI50 HT-29; for CC50: read-out: LC50 HT-29
K-562 = test: SRB colorimetric assay of cell growth and viability, K-562; conditions: K-562, 48 hours exposure; for CC50: read-out: LC50 K-562
LoVo-Dox = test: SRB colorimetric assay of cell growth and viability, LoVo-Dox; conditions: LOVO-DOX, 48 hours exposure; for CC50: read-out: LC50 LOVO-DOX
Procedure, shortened: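 Absorbance at 490 nm of Tris-solubilized sulforhodamine B gives the read-out after cells are fixed with cold 50% TCA for 60 min at 4° C. Compound exposure lasts 48 hours over 10 to 10^−8 μg/mL. Growth inhibition, total growth inhibition and lethal concentration are calculated from triplicate wells.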

SK-BR-3 = test: SRB colorimetric assay of cell growth and viability, SK-BR-3; conditions: 48 hours exposure
Source text: The finality of this assay is to interrupt the growth of a “in vitro” tumor cell culture by means a continued exhibition of the cells to the sample to be testing.
This form of the assay employs 96 well cell culture microplates of 9 mm diameter (Faircloth, 1988; Mosmann, 1983). Most of the cell lines are obtained from American Type Culture Collection (ATCC) derived from different human cancer types.
Cells are maintained in RPMI 1640 10% FBS, supplemented with 0.1 g/l penicillin and 0.1 g/l streptomycin sulfate and then incubated at 37° C., 5% CO2 and 98% humidity. For the experiments, cells were harvested from subconfluent cultures using trypsin and resuspended in fresh medium before plating.
Cells are seeded in 96 well microtiter plates, at 5×10^3 cells per well in aliquots of 195 μL medium, and they are allowed to attach to the plate surface by growing in drug free medium for 18 hours. Afterward, samples are added in aliquots of 5 μL in a ranging from 10 to 10^−8 μg/mL, dissolved in DMSO:EtOH:PBS (0.5:0.5:99). After 48 hours exposure, the antitumor effect are measured by the SRB methodology: cells are fixed by adding 50 μL of cold 50% (wt/vol) trichloroacetic acid (TCA) and incubating for 60 minutes at 4° C. Plates are washed with deionized water and dried. One hundred μL of SRB solution (0.4% wt/vol in 1% acetic acid) is added to each microtiter well and incubated for 10 minutes at room temperature. Unbound SRB is removed by washing with 1% acetic acid. Plates are air dried and bound stain is solubilized with Tris buffer. Optical densities are read on a automated spectrophotometric plate reader at a single wavelength of 490 nm.
The values for mean+/− SD of data from triplicate wells are calculated. Some parameters for cellular responses can be calculated: GI=growth inhibition, TGI=total growth inhibition (cytostatic effect) and LC=cell killing (cytotoxic effect).

A-549 = test: SRB colorimetric assay of cell growth and viability, A-549; conditions: A-549, 48 hours exposure; for GI50: read-out: GI50 A-549; for CC50: read-out: LC50 A-549
LoVo = test: SRB colorimetric assay of cell growth and viability, LoVo; conditions: LOVO, 48 hours exposure
PANC-1 = test: SRB colorimetric assay of cell growth and viability, PANC-1; conditions: PANC-1, 48 hours exposure; for CC50: read-out: LC50 PANC-1
IGROV-ET = test: SRB colorimetric assay of cell growth and viability, IGROV-ET; conditions: 48 hours exposure; for CC50: read-out: LC50 IGROV-ET
HeLa-APL = test: SRB colorimetric assay of cell growth and viability, HeLa-APL; conditions: HELA-APL, 48 hours exposure

SMILES | LC50 (concentration causing 50% net cell killing) (IGROV-1; IGROV) [nM] | GI50 (HeLa) [nM] | TGI HELA (HeLa) [Molar] | CC50 (HeLa) [nM] | LC50 (concentration causing 50% net cell kill) (DU-145; DU-145) [nM] | CC50 (SK-MEL-28; MEL-28) [nM] | TGI HT-29 (HT-29) [Molar] | GI50 (HT-29) [nM] | CC50 (HT-29) [nM] | GI50 (K-562) [nM] | TGI K-562 (K-562) [Molar] | CC50 (K-562) [nM] | GI50 (LoVo-Dox) [nM] | TGI LOVO-DOX (LoVo-Dox) [Molar] | CC50 (LoVo-Dox) [nM] | LC50 (SK-BR-3; SK-BR-3) [nM] | TGI A-549 (A-549) [Molar] | GI50 (A-549) [nM] | CC50 (A-549) [nM] | GI50 (PANC-1) [nM] | other results
[2H]C([2H])([2H])C([2H])(C([2H])([2H])[2H])[C@]([2H])(NC(=O)[C@@H](NC(=O)[C@H](NC(=O)CCCC(C)C)C(C)C)[C@@H](C)O)C(=O)N[C@@H](C(=O)N1CCC[C@@H]1C(=O)N[C@@H](CCCN)C(=O)N[C@@H](C(=O)N[C@H]1C(=O)N[C@H]([C@@H](C)CC)C(=O)N[C@H](C(C)C)C(=O)N[C@@H](Cc2ccccc2)C(=O)N/C(=C\C)C(=O)N[C@@H](C(C)C)C(=O)O[C@@H]1C)[C@@H](C)CC)C(C)C [Compound 100, [L-Val-d8^11]-KF] | 1730 | 681 | 1.15E−06 | 1880 | 1590 | 1880 | 6.50E−07 | 318 | 1180 | 1880 | 1.88E−06 | 1880 | 123 | 6.88E−07 | 1380 | 1450 | 1.88E−06 | 1880 | 1880 | 1880 | GI50 (IGROV-1; SRB): 781 nM; TGI IGROV (IGROV-1; SRB): 1.16E−06 Molar; GI50 (DU-145; SRB): 544 nM; TGI DU-145 (DU-145; SRB): 9.69E−07 Molar; GI50 (SK-MEL-28; SRB): 963 nM; TGI MEL-28 (SK-MEL-28; SRB): 1.46E−06 Molar; GI50 (SK-BR-3; SRB): 348 nM; TGI SK-BR-3 (SK-BR-3; SRB): 8.19E−07 Molar; GI50 (LoVo): 181 nM; TGI LOVO (LoVo): 6.38E−07 Molar; CC50 (LoVo; read-out: LC50 LOVO): 1260 nM; TGI PANC-1 (PANC-1): 1.88E−06 Molar; CC50 (PANC-1): 1880 nM; GI50 (IGROV-ET; SRB): 399 nM; TGI IGROV-ET (IGROV-ET; SRB): 7.63E−07 Molar; CC50 (IGROV-ET; IGROV-ET): 1750 nM
C/C=C1\NC(=O)[C@H](Cc2ccccc2)NC(=O)[C@@H](C(C)C)NC(=O)[C@@H]([C@@H](C)CC)NC(=O)[C@H](NC(=O)[C@H](NC(=O)[C@H](CCCN)NC(=O)[C@H]2CCCN2C(=O)[C@H](NC(=O)[C@@H](NC(=O)[C@H](CCC(N)=O)NC(=O)[C@H](NC(=O)CCCC(C)C)C(C)C)C(C)C)C(C)C)[C@@H](C)CC)[C@@H](C)OC(=O)[C@H](C(C)C)NC1=O [Compound 119, [Gln^12]-KF] ({Hexanoyl(5-Me)}-[dV]QV[dV][dP][Orn][d(aIle)][d(aThr)][d(aIle)][dV]F[Dhb]V; ester 8-C) | 1740 | 379 | 6.64E−07 | 1990 | 1990 | 1990 | 1.35E−06 | 864 | 1990 | 1990 | 1.99E−06 | 1990 | 591 | 1.16E−06 | 1990 | 1560 | 1.99E−06 | 1990 | 1990 | 1990 | GI50 (IGROV-1; IGROV): 651 nM; TGI IGROV (IGROV-1; IGROV): 1.07E−06 Molar; GI50 (DU-145; DU-145): 1990 nM; TGI DU-145 (DU-145; DU-145): 1.99E−06 Molar; GI50 (SK-MEL-28; MEL-28): 1990 nM; TGI MEL-28 (SK-MEL-28; MEL-28): 1.99E−06 Molar; GI50 (HeLa-APL): 1990 nM; TGI HELA-APL (HeLa-APL): 1.99E−06 Molar; CC50 (HeLa-APL; read-out: LC50 HELA-APL): 1990 nM; GI50 (SK-BR-3; SK-BR-3): 258 nM; TGI SK-BR-3 (SK-BR-3; SK-BR-3): 5.34E−07 Molar; TGI PANC-1 (PANC-1): 1.99E−06 Molar; CC50 (PANC-1): 1990 nM; GI50 (IGROV-ET; IGROV-ET): 764 nM; TGI IGROV-ET (IGROV-ET; IGROV-ET): 1.37E−06 Molar; CC50 (IGROV-ET; IGROV-ET): 1990 nM
